The values below come from ChEMBL document CHEMBL5465560, “Selectivity Literature for EUbOPEN Chemogenomic Library” (2024).

Assay [1] addresses Tyrosine-protein kinase receptor Tie-1 (Homo sapiens) (UniProt P35590). To be noted: at 10 µM.
For assay [2], the target named is Serine/threonine-protein kinase 32C (Homo sapiens) (UniProt Q86UX6). Kind of assay: Selectivity interaction (KinomeScan (DiscoverX)) EUB0000595a STK32C. To be noted: at 10 µM.
Assay [3] addresses T1, Serine/threonine-protein kinase PLK4 (Homo sapiens) (UniProt O00444).
T1 sequence (whole entry): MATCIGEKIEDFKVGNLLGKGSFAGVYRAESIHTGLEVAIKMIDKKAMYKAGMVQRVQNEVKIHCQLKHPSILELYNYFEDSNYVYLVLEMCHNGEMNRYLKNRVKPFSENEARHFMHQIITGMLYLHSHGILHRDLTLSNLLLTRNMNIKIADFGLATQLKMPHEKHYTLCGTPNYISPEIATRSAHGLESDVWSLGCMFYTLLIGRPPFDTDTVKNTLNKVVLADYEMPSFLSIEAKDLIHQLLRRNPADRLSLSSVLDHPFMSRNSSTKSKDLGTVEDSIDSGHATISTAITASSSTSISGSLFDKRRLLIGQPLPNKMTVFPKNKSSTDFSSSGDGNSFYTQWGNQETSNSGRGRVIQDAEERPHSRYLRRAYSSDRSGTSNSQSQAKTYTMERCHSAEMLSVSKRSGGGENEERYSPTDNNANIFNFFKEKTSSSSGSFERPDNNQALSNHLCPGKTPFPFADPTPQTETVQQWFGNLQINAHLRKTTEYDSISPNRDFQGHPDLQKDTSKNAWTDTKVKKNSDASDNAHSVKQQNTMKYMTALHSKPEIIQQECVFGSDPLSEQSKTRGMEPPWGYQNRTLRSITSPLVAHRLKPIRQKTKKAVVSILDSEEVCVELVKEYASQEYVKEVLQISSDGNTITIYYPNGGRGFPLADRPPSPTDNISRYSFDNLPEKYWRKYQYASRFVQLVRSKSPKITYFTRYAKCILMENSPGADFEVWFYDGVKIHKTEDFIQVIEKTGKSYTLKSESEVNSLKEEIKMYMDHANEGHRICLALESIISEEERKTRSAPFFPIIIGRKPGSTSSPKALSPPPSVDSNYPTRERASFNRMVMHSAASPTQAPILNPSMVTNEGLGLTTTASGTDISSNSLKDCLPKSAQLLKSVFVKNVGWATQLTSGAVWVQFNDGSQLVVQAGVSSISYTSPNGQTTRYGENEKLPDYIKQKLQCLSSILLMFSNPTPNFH
Kind of assay: Selectivity interaction (KinomeScan (DiscoverX)) EUB0000595a PLK4. To be noted: at 10 µM.

Assay [4] has as its target Serine/threonine-protein kinase pim-1 (Homo sapiens, UniProt P11309). Kind of assay: Selectivity interaction (KinomeScan (DiscoverX)) EUB0000695a PIM1. Particulars: at 100 nM.
Assay [5] addresses Serine/threonine-protein kinase 32C (Homo sapiens) (UniProt Q86UX6). Kind of assay: Selectivity interaction (KinomeScan (DiscoverX)) EUB0000695a STK32C. Particulars: at 100 nM.
Assay [6] deals with Vascular endothelial growth factor receptor 1 (Homo sapiens) (UniProt P17948). Kind of assay: Selectivity interaction (KinomeScan (DiscoverX)) EUB0000695a FLT1. To be noted: at 100 nM.
For assay [7], the target named is LIM domain kinase 1 (Homo sapiens) (UniProt P53667). Kind of assay: Selectivity interaction (KinomeScan (DiscoverX)) EUB0000045b LIMK1.
Assay [8] deals with T2, Atypical kinase COQ8B, mitochondrial (Homo sapiens) (UniProt Q96D53).
T2 sequence (whole entry): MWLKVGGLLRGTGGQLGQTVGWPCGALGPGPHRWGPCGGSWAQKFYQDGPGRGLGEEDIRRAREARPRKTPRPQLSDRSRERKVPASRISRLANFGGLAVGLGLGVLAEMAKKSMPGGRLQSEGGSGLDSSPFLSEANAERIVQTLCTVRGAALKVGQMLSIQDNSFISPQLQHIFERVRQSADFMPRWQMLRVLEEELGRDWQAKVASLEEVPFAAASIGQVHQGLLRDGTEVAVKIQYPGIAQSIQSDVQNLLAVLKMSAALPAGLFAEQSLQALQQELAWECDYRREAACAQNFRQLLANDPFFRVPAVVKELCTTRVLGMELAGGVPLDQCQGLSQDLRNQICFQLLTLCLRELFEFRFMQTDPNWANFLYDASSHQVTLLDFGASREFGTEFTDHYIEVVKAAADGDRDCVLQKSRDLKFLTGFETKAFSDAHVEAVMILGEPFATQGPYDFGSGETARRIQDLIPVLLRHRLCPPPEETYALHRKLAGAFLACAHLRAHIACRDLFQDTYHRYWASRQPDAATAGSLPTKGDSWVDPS
Kind of assay: Selectivity interaction (KinomeScan (DiscoverX)) EUB0000045b ADCK4.

For assay [9], the target named is MAP kinase-interacting serine/threonine-protein kinase 2 (Homo sapiens, UniProt Q9HBH9). Kind of assay: Selectivity interaction (Kinase panel (literature)) EUB0001199aCl MKNK2. To be noted: at 1 µM.
The target in assay [10] is LIM domain kinase 2 (Homo sapiens) (UniProt P53671). Kind of assay: Selectivity interaction (ProQinase) EUB0000171b LIMK2.
Assay [11] has as its target Mitogen-activated protein kinase kinase kinase 4 (Homo sapiens) (UniProt Q9Y6R4). Kind of assay: Selectivity interaction (KinomeScan (DiscoverX)) EUB0001049a MAP3K4. Particulars: at 1 µM.
Assay [12] addresses Acetylcholine receptor subunit alpha (Homo sapiens, UniProt P02708). Kind of assay: Selectivity interaction (Panel of kinases, GPCRs, ion channels and transporters (enzymatic assay)) EUB0000223bCl CHRNA1.
Assay [13] concerns the target T3, Serine/threonine-protein kinase Chk1 (Homo sapiens) (UniProt O14757).
T3 sequence (whole entry): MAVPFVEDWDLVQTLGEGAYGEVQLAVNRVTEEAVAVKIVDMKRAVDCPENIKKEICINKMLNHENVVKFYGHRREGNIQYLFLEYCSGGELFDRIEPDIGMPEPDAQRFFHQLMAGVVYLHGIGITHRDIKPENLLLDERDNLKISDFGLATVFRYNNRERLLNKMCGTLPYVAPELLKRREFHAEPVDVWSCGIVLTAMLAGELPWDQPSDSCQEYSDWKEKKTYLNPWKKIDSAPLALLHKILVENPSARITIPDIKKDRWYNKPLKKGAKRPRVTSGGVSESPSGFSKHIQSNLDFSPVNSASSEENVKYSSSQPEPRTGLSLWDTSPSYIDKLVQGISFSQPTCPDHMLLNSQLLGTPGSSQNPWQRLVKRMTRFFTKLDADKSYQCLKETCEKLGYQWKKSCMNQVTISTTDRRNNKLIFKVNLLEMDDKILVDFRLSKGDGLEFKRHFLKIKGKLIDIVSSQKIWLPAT
Kind of assay: Selectivity interaction (Upstate Kinase Profiler service (Millipore)) EUB0000056c CHEK1. Particulars: at 1 µM.

The target of assay [14] is SRSF protein kinase 1 (Homo sapiens, UniProt Q96SB4). Kind of assay: Selectivity interaction (KinomeScan (DiscoverX)) EUB0000618a SRPK1. To be noted: at 10 µM.
Assay [15] has as its target Death-associated protein kinase 3 (Homo sapiens) (UniProt O43293). Kind of assay: Selectivity interaction (KinomeScan (DiscoverX)) EUB0000618a DAPK3. To be noted: at 10 µM.

Sequence of Serine/threonine-protein kinase 32C (Homo sapiens) (Q86UX6 whole entry): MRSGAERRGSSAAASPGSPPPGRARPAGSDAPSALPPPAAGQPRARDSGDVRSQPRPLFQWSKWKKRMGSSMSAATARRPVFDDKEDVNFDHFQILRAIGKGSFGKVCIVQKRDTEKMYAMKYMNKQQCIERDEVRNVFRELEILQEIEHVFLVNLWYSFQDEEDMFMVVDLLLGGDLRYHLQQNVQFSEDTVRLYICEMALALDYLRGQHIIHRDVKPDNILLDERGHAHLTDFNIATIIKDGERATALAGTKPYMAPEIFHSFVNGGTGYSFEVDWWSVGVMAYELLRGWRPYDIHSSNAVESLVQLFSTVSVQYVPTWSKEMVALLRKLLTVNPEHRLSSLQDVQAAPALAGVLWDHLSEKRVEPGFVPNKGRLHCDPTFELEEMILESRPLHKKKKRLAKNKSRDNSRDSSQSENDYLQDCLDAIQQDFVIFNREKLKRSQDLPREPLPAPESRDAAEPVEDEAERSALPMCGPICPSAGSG
Sequence of LIM domain kinase 2 (Homo sapiens) (P53671 whole entry, looked up, the tested form may be a part): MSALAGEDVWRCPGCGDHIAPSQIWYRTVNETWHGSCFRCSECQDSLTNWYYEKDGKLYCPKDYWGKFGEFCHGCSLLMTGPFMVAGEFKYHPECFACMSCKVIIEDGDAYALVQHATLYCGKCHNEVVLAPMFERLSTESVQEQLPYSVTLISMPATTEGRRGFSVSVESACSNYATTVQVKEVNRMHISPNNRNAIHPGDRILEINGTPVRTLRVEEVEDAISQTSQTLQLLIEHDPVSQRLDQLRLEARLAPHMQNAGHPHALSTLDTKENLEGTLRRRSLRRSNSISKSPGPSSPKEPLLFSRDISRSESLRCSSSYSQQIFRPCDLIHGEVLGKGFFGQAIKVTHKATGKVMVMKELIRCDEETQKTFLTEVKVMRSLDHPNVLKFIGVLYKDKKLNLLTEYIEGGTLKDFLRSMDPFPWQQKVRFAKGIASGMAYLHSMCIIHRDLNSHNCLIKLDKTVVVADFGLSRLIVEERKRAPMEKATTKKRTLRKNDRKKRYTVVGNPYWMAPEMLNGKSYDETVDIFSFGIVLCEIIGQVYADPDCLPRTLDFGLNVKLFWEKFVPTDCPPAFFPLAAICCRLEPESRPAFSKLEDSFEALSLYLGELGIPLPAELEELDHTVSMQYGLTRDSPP
Sequence of LIM domain kinase 1 (Homo sapiens) (P53667 whole entry, looked up, the tested form may be a part): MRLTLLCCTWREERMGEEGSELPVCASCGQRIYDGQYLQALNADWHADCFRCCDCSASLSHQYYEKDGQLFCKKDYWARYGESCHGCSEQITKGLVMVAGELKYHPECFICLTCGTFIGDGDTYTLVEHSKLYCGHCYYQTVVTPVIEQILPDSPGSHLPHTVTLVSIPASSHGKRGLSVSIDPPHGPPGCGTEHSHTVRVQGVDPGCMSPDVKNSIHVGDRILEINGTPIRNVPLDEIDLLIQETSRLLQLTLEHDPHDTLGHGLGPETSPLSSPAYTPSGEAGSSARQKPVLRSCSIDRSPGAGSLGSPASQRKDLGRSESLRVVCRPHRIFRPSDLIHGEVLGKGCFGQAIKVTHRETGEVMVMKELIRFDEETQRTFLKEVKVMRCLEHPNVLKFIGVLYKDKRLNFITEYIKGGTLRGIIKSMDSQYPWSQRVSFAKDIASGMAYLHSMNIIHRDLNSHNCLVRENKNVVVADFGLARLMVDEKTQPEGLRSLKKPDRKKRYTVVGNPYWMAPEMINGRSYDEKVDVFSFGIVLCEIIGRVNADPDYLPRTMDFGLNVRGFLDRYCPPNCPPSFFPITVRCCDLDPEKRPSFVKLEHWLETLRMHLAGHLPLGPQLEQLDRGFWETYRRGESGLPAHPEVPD
Sequence of Mitogen-activated protein kinase kinase kinase 4 (Homo sapiens) (Q9Y6R4 whole entry): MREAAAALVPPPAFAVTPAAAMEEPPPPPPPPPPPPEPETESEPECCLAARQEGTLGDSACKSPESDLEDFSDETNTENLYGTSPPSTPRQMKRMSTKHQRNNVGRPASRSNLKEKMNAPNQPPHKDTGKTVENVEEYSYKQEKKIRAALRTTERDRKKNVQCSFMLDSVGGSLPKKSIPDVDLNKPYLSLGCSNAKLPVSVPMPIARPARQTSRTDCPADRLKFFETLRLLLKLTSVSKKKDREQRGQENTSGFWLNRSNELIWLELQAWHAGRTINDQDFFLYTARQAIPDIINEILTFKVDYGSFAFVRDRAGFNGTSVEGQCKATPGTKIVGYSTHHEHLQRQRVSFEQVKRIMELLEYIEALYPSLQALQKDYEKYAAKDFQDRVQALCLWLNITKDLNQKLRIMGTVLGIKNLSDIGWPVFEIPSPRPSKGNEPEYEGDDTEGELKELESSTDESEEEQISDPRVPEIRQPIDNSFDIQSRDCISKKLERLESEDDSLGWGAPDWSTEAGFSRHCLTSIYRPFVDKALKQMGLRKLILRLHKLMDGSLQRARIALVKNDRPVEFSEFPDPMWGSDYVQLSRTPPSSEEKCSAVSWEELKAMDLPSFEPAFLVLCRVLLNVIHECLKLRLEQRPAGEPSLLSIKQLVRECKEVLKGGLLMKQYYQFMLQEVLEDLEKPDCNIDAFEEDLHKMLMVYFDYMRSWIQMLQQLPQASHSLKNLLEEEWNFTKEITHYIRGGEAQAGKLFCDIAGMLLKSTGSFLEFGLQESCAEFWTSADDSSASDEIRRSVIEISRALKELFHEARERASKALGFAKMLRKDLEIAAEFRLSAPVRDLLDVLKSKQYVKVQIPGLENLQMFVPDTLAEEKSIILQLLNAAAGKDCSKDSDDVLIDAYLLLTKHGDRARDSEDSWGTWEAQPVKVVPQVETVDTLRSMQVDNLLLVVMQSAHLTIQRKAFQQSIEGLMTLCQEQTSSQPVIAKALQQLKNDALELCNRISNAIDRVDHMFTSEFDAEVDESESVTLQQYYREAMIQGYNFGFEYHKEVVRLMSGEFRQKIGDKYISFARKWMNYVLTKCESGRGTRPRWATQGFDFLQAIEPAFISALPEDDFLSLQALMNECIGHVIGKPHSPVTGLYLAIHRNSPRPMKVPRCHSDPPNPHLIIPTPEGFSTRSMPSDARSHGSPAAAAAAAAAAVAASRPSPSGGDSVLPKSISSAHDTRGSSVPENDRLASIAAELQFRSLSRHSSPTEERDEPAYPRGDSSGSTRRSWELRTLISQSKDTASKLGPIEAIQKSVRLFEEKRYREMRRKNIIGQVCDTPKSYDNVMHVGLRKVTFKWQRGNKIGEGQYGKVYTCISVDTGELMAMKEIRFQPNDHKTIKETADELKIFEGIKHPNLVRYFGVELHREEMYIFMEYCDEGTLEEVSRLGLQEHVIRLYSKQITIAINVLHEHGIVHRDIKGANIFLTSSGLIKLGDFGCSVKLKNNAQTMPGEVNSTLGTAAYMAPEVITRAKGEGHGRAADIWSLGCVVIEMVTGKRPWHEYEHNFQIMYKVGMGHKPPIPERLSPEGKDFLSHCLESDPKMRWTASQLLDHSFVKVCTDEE
Sequence of SRSF protein kinase 1 (Q96SB4 whole entry): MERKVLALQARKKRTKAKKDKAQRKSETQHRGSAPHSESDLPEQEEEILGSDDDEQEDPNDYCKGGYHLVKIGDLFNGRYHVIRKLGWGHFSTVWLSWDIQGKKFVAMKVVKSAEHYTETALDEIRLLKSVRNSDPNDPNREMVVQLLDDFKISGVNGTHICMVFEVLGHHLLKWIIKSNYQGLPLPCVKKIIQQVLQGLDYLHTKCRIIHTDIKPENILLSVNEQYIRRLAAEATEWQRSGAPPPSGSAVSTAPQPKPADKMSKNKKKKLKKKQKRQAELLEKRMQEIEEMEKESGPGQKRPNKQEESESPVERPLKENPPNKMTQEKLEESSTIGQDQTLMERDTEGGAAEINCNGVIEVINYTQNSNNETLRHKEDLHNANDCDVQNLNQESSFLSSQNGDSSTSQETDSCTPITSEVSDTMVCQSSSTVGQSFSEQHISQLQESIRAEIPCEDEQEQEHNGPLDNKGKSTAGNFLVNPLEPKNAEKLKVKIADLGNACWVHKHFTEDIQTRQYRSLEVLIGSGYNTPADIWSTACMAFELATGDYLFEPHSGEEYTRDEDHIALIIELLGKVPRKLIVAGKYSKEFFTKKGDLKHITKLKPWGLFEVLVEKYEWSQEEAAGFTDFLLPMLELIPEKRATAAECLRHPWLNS
Sequence of Acetylcholine receptor subunit alpha (P02708 whole entry): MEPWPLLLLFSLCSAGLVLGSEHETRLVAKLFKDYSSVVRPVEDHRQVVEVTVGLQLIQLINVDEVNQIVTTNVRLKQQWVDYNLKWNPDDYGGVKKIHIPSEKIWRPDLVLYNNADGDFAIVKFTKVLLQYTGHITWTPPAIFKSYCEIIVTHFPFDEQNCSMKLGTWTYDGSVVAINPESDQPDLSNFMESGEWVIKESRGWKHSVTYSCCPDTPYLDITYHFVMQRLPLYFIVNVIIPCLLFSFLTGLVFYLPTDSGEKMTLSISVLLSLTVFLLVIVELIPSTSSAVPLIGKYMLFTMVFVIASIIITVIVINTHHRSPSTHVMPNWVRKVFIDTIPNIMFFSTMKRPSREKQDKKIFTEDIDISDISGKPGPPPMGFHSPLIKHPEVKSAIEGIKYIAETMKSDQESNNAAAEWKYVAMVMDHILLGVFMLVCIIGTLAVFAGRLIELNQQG
Sequence of Serine/threonine-protein kinase pim-1 (P11309 whole entry, looked up): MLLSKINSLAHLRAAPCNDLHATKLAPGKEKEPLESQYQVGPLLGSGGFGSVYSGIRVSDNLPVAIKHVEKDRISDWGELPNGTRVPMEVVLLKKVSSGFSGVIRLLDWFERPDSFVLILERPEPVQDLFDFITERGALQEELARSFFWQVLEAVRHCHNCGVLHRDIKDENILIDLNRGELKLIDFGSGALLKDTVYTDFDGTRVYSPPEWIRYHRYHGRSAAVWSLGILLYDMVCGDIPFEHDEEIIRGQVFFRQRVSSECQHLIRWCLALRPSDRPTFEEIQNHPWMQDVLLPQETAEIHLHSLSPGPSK

Turning to `COCC(=O)NC/C=C/c1ccc2ncnc(Nc3ccc(Oc4ccc(C)nc4)c(C)c3)c2c1` [CP-724714], the % of control in assay [1] turned out to be 100%; in assay [2], 86%; in [3], 74%.

Take `Cc1cc(F)c(C(=O)Nc2cccc(-c3nncn3C(C)C)n2)cc1-n1cnc(C2CC2)c1`: the % of control in assay [4], in [5] and in assay [6] was 100% in each case.

For the compound `C=CC(=O)Nc1cc(-n2c(=O)ccc3cnc4ccc(-c5ccc(NS(C)(=O)=O)cc5)cc4c32)ccc1C`, the % of control in assay [7] (at 1 µM) amounted to 100%; in assay [7] (at 10 µM) it was 95%; in assay [8] (at 1 µM) it was 100%; in assay [8] (at 10 µM), 64%.

For `CN1Cc2nccc(-c3cn(C)nc3-c3ccc(F)cc3)c2C1=O`, the % of inhibition in assay [9] turned out to be 9%.

Take `C=CC(=O)Nc1cccc(C(=O)Nc2ccc(Nc3cc(-c4[nH]c(SC)nc4C)ccn3)cc2)c1`: the % of control in assay [10] (at 1 µM) worked out at 90%; in assay [10] (at 5 µM) it was 80%.

In [11], `COc1cc(Nc2nc(C)cc(-c3cnn4nc(OC)ccc34)n2)cc(C(F)(F)F)c1` returned a % of control of 87%.

The compound `COc1cc(C(=O)N2CC[C@@H](O)[C@@H](N)C2)cc2nc(-c3cc4ccccc4n3CC3CC3)n(C)c12` showed a pXC50 in [12] of 5.8 M.

As to `Cc1ccc(-c2ccc3c(ccc4sc5c(c43)NC[C@@H](C)NC5=O)n2)cn1`, the % of inhibition in assay [13] was found to be 12%.

As for `O[C@H]1CC[C@H](Nc2ncc3nc(Nc4c(F)cc(F)cc4F)n([C@H]4CCOC4)c3n2)CC1`, the % of control in assay [14] and in assay [15] was 100% throughout.
